Structures can show the parent of a compound that is named as a salt.
How the values were obtained:
[1] = Polymorphic stability on exposure to ethanol or methanol vapors; type: physicochemical; details: exposed to ethanol or methanol vapors, about RT, about 1 hour to about 24 hours
Excerpt: As discussed above, Nilotinib HBr form XI has advantageous properties. In particular, the crystalline Nilotinib HBr form XI of the present invention is polymorphically stable. […] This stability is an advantage for the production, storage and processing of pharmaceuticals comprising Nilotinib HBr.

[2] = Thermal polymorphic stability (heating of the crystalline form); type: physicochemical; details: heated up to 200° C.
Excerpt: As discussed above, Nilotinib L-tartrate Form IV has advantageous properties.

Row | Compound | polymorphic stability (conversion to other forms of Nilotinib HBr) [1] | thermal polymorphic stability (conversion to other forms) [2]
1 | Cc1cn(-c2cc(NC(=O)c3ccc(C)c(Nc4nccc(-c5cccnc5)n4)c3)cc(C(F)(F)F)c2)cn1 [Nilotinib HBr form XI, Nilotinib hydrobromide] | does not convert to other forms of Nilotinib HBr | 
2 | Nilotinib L-tartrate [Nilotinib L-tartrate Form IV] |  | does not convert to other forms

From patent US20130158059A1, “NILOTINIB SALTS AND CRYSTALLINE FORMS THEREOF” (TEVA PHARMACEUTICAL INDUSTRIES LTD., priority 2010, published 2013)
